Source: patent US20150183846A1, “HUMAN FUSION PROTEINS COMPRISING SINGLE CHAIN TNFALPHA AND TARGETING DOMAINS” (Scil Proteins GmbH, priority 2012, published 2015)
Entries after “also recorded” stand apart in the source; their conditions may differ.

How the values were obtained:
F9-tumor tissue = test: Binding on F9 teratocarcinoma tumor slices; design: species or system mouse
Method: ED-B accumulates around neovascular structures, like tumor blood vessels (Tarli et al., 1999, Blood 94: 192-198). Different concentrations of fusion proteins were compared with respect to ED-B target binding on F9 teratocarcinoma slides. Slices of a thickness of 6 μm were fixed with ice cold absolute acetone. After blocking with 5% horse serum, slices were incubated with 1, 5 and 10 nM of fusion proteins 64177, 83563, 83564 and the non-ED-B targeted protein 64179, respectively. Fusion proteins were probed by anti-TNFalpha-antibody (Peprotech 500-P64, 1:500) and additional with a secondary Alexa488 conjugated antibody (Invitrogen, A11008, 1:1000). CD31 (PECAM-1) is a widely used endothelial cell marker. Therefore, vessels were stained by use of an anti-mouse CD31-antibody (10 μg/ml; Abcam, ab56299) and an Alexa594-conjugated secondary antibody.

Wi38 cells = test: Binding (staining) on vital Wi38 fibroblast cells; format: cell-based, human; conditions: Wi38 cells (high ED-B), up to 10 nM, anti-TNFalpha-antibody detection
Method: (§1) ED-B is expressed in tumors and the matrix on embryonic cells. The binding of the cancer target-binding protein fused to scTNFalpha to the matrix of cell culture cells was compared to the binding of the control and non-targeting domain protein fused to scTNFalpha (64179). Different cell culture cells were analyzed, including normal human fetal lung fibroblast cells having high expression levels of ED-B (Wi38 cells), and normal human dermal fibroblasts having low level of ED-B (NHDF). To analyze the in vitro binding, 64177, 83563, 83564 and 64179 were investigated on vital Wi38 cells.
(§2) Fusion proteins (single concentration of 1, 5 and 10 nM) or control protein 64179 (1, 5 and 10 nM) were incubated (1 h, 37° C.) with Wi38 and NHDF cells (60,000 cells/ml; from ATCC), followed by fixation with methanol, blocking (5% Horse serum/PBS); incubation with an anti-TNFalpha-antibody (Peprotech 500-P64, 1:500) and additionally with a secondary Alexa488 conjugated antibody (obtained from Invitrogen A11008, 1:1000). The nuclei were stained with DAPI.

NHDF cells = test: Binding (staining) on vital NHDF cells; format: cell-based, human; conditions: NHDF cells (low ED-B), up to 10 nM
Method: as §1, §2

L929 cells = test: L929 apoptosis (cytotoxicity) assay of TNFalpha activity; format: cell-based; conditions: actinomycin D sensitized cells, 24 h
Source text: The physiological TNFalpha-activity of an Affilin-scTNF-fusion protein has been determined using the L929 apoptosis assay (Flick et al., 1984 J. Immunol. Methods. 68:167-175). In this assay, the effector part of the fusion protein (scTNFalpha, three soluble TNFalpha monomers connected via peptide linkers) efficiently stimulates cell death in actinomycin D sensitized cells at EC50 values in the picomolar range.
Cells were resuspended in suitable medium containing FBS and antibiotics. A cell suspension of a density of 3.5×10^5 cells/ml in medium containing 2% FCS was seeded into the wells of a 96 well standard cell culture plate. After incubation, the culture medium was removed and medium containing 4% FBS, Actinomycin D and antibiotics was added to each well. […] After a further incubation of 24 h, the metabolic activity as a measure of cell survival was determined using WST-1 reagent (Roche). […] The quantitative evaluation is based on the relative potency against a mTNFalpha-standard.
In this embodiment, an L929 assay was used as activity assay versus mouse TNFalpha as internal standard (mTNFalpha in the figure). […] Potency has been determined in several independent assays and is determined by parallel line method with PLA2.0 software relative to the internal control mTNFalpha. […]

MDA-MB 231 tumor = test: In vivo efficacy study in breast cancer (MDA-MB 231) tumor bearing mice, combination with Lipodox; design: species or system mouse
Source text: The efficacy study is intended to analyze the effect of targeted fusion protein 83564 combined with a chemotherapeutic on the tumor size in a breast cancer model. As model system for the in vivo efficacy study, the breast cancer cell line MDA-MB 231 (ATCC® HTB-26™; patient derived model, obtained from ATCC) was used. Cells were implanted subcutaneously in the left flank of female immunodeficient NMRI nu/nu mice from Harlan. For this study, Lipodox was used as exemplary cytotoxic drug; any other cytotoxic agents could be used instead. The chemotherapeutic Lipodox from Sun Pharma Global FZE is composed of doxorubicin hydrochloride encapsulated in long circulating pegylated liposomes. It is indicated as monotherapy for the treatment of metastatic breast cancer with increased cardiac risk.
In order to show the efficacy of Affilin-scTNFalpha-fusion protein 83564, mice carrying an MDA-MB 231 tumor with an initial size between 50 mm^3 and 200 mm^3 were intravenously treated with 75 μg/kg/day 83564 combined with Lipodox at a dose of 1.5 mg/kg/day (closed squares in FIG. 8). As control substance, 75 μg/kg/day 64179 (Affilin-scTNFalpha-fusion protein without targeting) combined with Lipodox at a dose of 1.5 mg/kg/day was injected intravenously into separate mice (closed circles in FIG. 8). […] During the whole efficacy study, the relative tumor volume was analyzed.

[1] = In vivo toxicity study in naive CD1 mice, single intravenous dose; conditions: i.v., mTNFalpha 470 μg/kg equimolar to 650 μg/kg 64177
Method: Two groups of 3 male and 3 female mice for each treatment dose were recruited. One group of 3 male and 3 female mice for each treatment dose was sacrificed 24 h after the intravenous administration to obtain information on acute TNFalpha mediated effects. […] Parameters that were analyzed are: clinical signs (local tolerance, systemic tolerance, mortality, behavior, external appearance, faeces), body weight, body temperature, food consumption, hematology, clinical chemistry, macroscopic post mortem findings, organ weights and histopathology of dedicated organs.

| Substance | accumulation close to F9-tumor vessels (co-staining with anti-CD31) (F9-tumor tissue; 1 nM fusion protein) | binding on F9-tumor tissue slices (F9-tumor tissue; 1 nM, 5 nM and 10 nM) | staining of ED-B on vital Wi38 cells (Wi38 cells) | staining on vital NHDF cells (NHDF cells) | activity of the scTNFalpha part relative to mouse TNFalpha internal standard (L929 cells) | relative tumor volume at day 28 (MDA-MB 231 tumor; 75 μg/kg/day fusion protein i.v. combined with Lipodox 1.5 mg/kg/day) [mm^3] | effect on tumor growth compared with the other groups (MDA-MB 231 tumor; fusion protein combined with Lipodox 1.5 mg/kg/day) | incidence and/or severity of toxic effects, mTNFalpha- versus 64177-treated animals [1] |
| --- | --- | --- | --- | --- | --- | --- | --- | --- |
| 64179: control fusion protein of a non-binding ubiquitin dimer (Ub2) and mouse scTNFalpha (SEQ ID NO: 16) [compound 64179, reference compound] | no accumulation in F9-tumor vessels | not detected | No unspecific staining; also recorded: not detectable | not detectable | at least the same activity compared to the mouse TNFalpha | 651 | had the effect on growth of breast cancer as Lipodox alone |  |
| mTNFalpha: murine recombinant TNFalpha used as internal standard and reference item [reference compound] |  |  |  |  |  |  |  | generally more pronounced |
